# Values of other authors as cited in patent US20060165788A1, “Lercanidipine pH dependent pulsatile release compositions” (priority 2004, published 2006).
# Assays:
# [1] = system: Caco-2 cell; settings: Caco-2 cell apparatus
# [2] = not given; remark: listed apart in the source
# [3] = for time to maximum concentration (Tmax): form (I) and form (II) compared with each other
Compound,"permeability, Paap [1]",increase of amount of lercanidipine absorbed with simultaneous intake of food (in vivo),presystemic first pass elimination (in vivo),"peak plasma level Tmax (oral administration, immediate release form)",solubility at pH 5 [2],time to maximum concentration (Tmax) [3],bioavailability ([3]; form (II) compared to Form (I)),plasma concentration (AUCo-t) ([3]; form (II) compared to Form (I))
"COC(=O)C1=C(C)NC(C)=C(C(=O)OC(C)(C)CN(C)CCC(c2ccccc2)c2ccccc2)C1c1cccc([N+](=O)[O-])c1.Cl (stereo not drawn) [Lercanidipine, methyl 1,1,N-trimethyl-N-(3,3-diphenylpropyl)-2-aminoethyl 1,4-dihydro-2,6-dimethyl-4-(3-nitrophenyl)pyridine-3,5-dicarboxylate]",0.05 ×10⁻⁶ cm/s,between three and four times,extensive,1 to 3 h,less than 20 μg/ml,–,–,–
COC(=O)C1=C(C)NC(C)=C(C(=O)OC(C)(C)CN(C)CCC(c2ccccc2)c2ccccc2)C1c1cccc([N+](=O)[O-])c1 (stereo not drawn) [form (I)],–,–,–,–,–,shorter time to maximum concentration,–,–
COC(=O)C1=C(C)NC(C)=C(C(=O)OC(C)(C)CN(C)CCC(c2ccccc2)c2ccccc2)C1c1cccc([N+](=O)[O-])c1 (stereo not drawn) [form (II)],–,–,–,–,–,delayed time of maximum concentration,higher bioavailability,higher plasma concentration
